Assay results taken from ChEMBL document CHEMBL3046265, “Synthesis, evaluation of antimicrobial activity, and molecular modeling of novel 2-((4-(2H-benzo[d] [1,2,3] triazol-2-yl)piperidin-1-yl)methyl)-5-substituted phenyl-1,3,4-oxadiazoles” (2013).
The source made the active and inactive calls. No cut-off for these calls is given here.

How the values were obtained:
Format in all cases: functional
Proteus vulgaris [1] = assay: Antibacterial activity against Proteus vulgaris at 900 ug/ml after overnight incubation; conditions: read-out: IZ
Escherichia coli [2] = assay: Antibacterial activity against Escherichia coli at 600 ug/ml after overnight incubation; conditions: read-out: IZ
Escherichia coli [3] = assay: Antibacterial activity against Escherichia coli at 900 ug/ml after overnight incubation; conditions: read-out: IZ
Proteus vulgaris [4] = assay: Antibacterial activity against Proteus vulgaris at 600 ug/ml after overnight incubation; conditions: read-out: IZ
Colletotrichum falcatum [5] = assay: Antifungal activity against Glomerella tucumanensis at 300 ug/ml after 48 hr; conditions: read-out: IZ
Fusarium oxysporum [6] = assay: Antifungal activity against Fusarium oxysporum at 1200 ug/ml after 48 hr; conditions: read-out: IZ
Fusarium oxysporum [7] = assay: Antifungal activity against Fusarium oxysporum at 900 ug/ml after 48 hr; conditions: read-out: IZ
Fusarium oxysporum [8] = assay: Antifungal activity against Fusarium oxysporum at 600 ug/ml after 48 hr; conditions: read-out: IZ
Fusarium oxysporum [9] = assay: Antifungal activity against Fusarium oxysporum at 300 ug/ml after 48 hr; conditions: read-out: IZ
Candida albicans [10] = assay: Antifungal activity against Candida albicans at 1200 ug/ml after 48 hr; conditions: read-out: IZ
Candida albicans [11] = assay: Antifungal activity against Candida albicans at 900 ug/ml after 48 hr; conditions: read-out: IZ
Candida albicans [12] = assay: Antifungal activity against Candida albicans at 600 ug/ml after 48 hr; conditions: read-out: IZ
Candida albicans [13] = assay: Antifungal activity against Candida albicans at 300 ug/ml after 48 hr; conditions: read-out: IZ
Streptococcus pyogenes [14] = assay: Antibacterial activity against Streptococcus pyogenes at 900 ug/ml after overnight incubation; conditions: read-out: IZ
Streptococcus pyogenes [15] = assay: Antibacterial activity against Streptococcus pyogenes at 600 ug/ml after overnight incubation; conditions: read-out: IZ
Staphylococcus aureus [16] = assay: Antibacterial activity against Staphylococcus aureus at 900 ug/ml after overnight incubation; conditions: for zone of inhibition at 900 µg/mL: read-out: IZ
Staphylococcus aureus [17] = assay: Antibacterial activity against Staphylococcus aureus at 600 ug/ml after overnight incubation; conditions: for zone of inhibition at 600 µg/mL: read-out: IZ
Bacillus pumilus [18] = assay: Antibacterial activity against Bacillus pumilus at 900 ug/ml after overnight incubation; conditions: read-out: IZ
Bacillus pumilus [19] = assay: Antibacterial activity against Bacillus pumilus at 600 ug/ml after overnight incubation; conditions: read-out: IZ
Priestia megaterium [20] = assay: Antibacterial activity against Bacillus megaterium at 900 ug/ml after overnight incubation; conditions: for zone of inhibition at 900 µg/mL: read-out: IZ
Priestia megaterium [21] = assay: Antibacterial activity against Bacillus megaterium at 600 ug/ml after overnight incubation; conditions: for zone of inhibition at 600 µg/mL: read-out: IZ
Bacillus subtilis [22] = assay: Antibacterial activity against Bacillus subtilis at 900 ug/ml after overnight incubation; conditions: read-out: IZ
Bacillus subtilis [23] = assay: Antibacterial activity against Bacillus subtilis at 600 ug/ml after overnight incubation; conditions: read-out: IZ
Klebsiella aerogenes [24] = assay: Antibacterial activity against Enterobacter aerogenes at 900 ug/ml after overnight incubation; conditions: read-out: IZ
Klebsiella aerogenes [25] = assay: Antibacterial activity against Enterobacter aerogenes at 600 ug/ml after overnight incubation; conditions: read-out: IZ
Klebsiella pneumoniae [26] = assay: Antibacterial activity against Klebsiella pneumoniae at 900 ug/ml after overnight incubation; conditions: read-out: IZ
Klebsiella pneumoniae [27] = assay: Antibacterial activity against Klebsiella pneumoniae at 600 ug/ml after overnight incubation; conditions: read-out: IZ
Enterococcus faecalis [28] = assay: Antibacterial activity against Enterococcus faecalis at 900 ug/ml after overnight incubation; conditions: read-out: IZ
Enterococcus faecalis [29] = assay: Antibacterial activity against Enterococcus faecalis at 600 ug/ml after overnight incubation; conditions: read-out: IZ
Exserohilum rostratum [30] = assay: Antifungal activity against Setosphaeria rostrata at 1200 ug/ml after 48 hr; conditions: read-out: IZ
Exserohilum rostratum [31] = assay: Antifungal activity against Setosphaeria rostrata at 900 ug/ml after 48 hr; conditions: read-out: IZ
Exserohilum rostratum [32] = assay: Antifungal activity against Setosphaeria rostrata at 600 ug/ml after 48 hr; conditions: read-out: IZ
Exserohilum rostratum [33] = assay: Antifungal activity against Setosphaeria rostrata at 300 ug/ml after 48 hr; conditions: read-out: IZ
Colletotrichum falcatum [34] = assay: Antifungal activity against Glomerella tucumanensis at 1200 ug/ml after 48 hr; conditions: read-out: IZ
Colletotrichum falcatum [35] = assay: Antifungal activity against Glomerella tucumanensis at 900 ug/ml after 48 hr; conditions: read-out: IZ
Colletotrichum falcatum [36] = assay: Antifungal activity against Glomerella tucumanensis at 600 ug/ml after 48 hr; conditions: read-out: IZ

Row | Compound | zone of inhibition at 900 µg/mL (Proteus vulgaris [1]) | zone of inhibition at 600 µg/mL (Escherichia coli [2]) | zone of inhibition at 900 µg/mL (Escherichia coli [3]) | zone of inhibition at 600 µg/mL (Proteus vulgaris [4]) | zone of inhibition at 300 µg/mL (Colletotrichum falcatum [5]) | zone of inhibition at 1200 µg/mL (Fusarium oxysporum [6]) | zone of inhibition at 900 µg/mL (Fusarium oxysporum [7]) | zone of inhibition at 600 µg/mL (Fusarium oxysporum [8]) | zone of inhibition at 300 µg/mL (Fusarium oxysporum [9]) | zone of inhibition at 1200 µg/mL (Candida albicans [10]) | zone of inhibition at 900 µg/mL (Candida albicans [11]) | zone of inhibition at 600 µg/mL (Candida albicans [12]) | zone of inhibition at 300 µg/mL (Candida albicans [13]) | zone of inhibition at 900 µg/mL (Streptococcus pyogenes [14]) | zone of inhibition at 600 µg/mL (Streptococcus pyogenes [15]) | zone of inhibition at 900 µg/mL (Bacillus pumilus [18]) | zone of inhibition at 600 µg/mL (Bacillus pumilus [19]) | zone of inhibition at 900 µg/mL (Bacillus subtilis [22]) | zone of inhibition at 600 µg/mL (Bacillus subtilis [23]) | zone of inhibition at 900 µg/mL (Klebsiella aerogenes [24]) | also measured
1 | CC(C)(C)c1cc(-c2nnc(CN3CCC(n4nc5ccccc5n4)CC3)o2)cc(C(C)(C)C)c1 | 9.45 mm | 3.25 mm | 6.8 mm | 4.95 mm | 3.98 mm | 33.8 mm | 17.9 mm | 9.25 mm | 4.5 mm | 29.9 mm | 15 mm | 7.08 mm | 3.97 mm | 8.95 mm | 3.95 mm | 9.95 mm | 4.56 mm | 11.2 mm | 5.05 mm | 7.25 mm | zone of inhibition at 900 µg/mL (Staphylococcus aureus [16]): 9.05 mm; zone of inhibition at 600 µg/mL (Staphylococcus aureus [17]): 4.3 mm; zone of inhibition at 900 µg/mL (Priestia megaterium [20]): 8.21 mm; zone of inhibition at 600 µg/mL (Priestia megaterium [21]): 3.95 mm; zone of inhibition at 600 µg/mL (Klebsiella aerogenes [25]): 3.5 mm; zone of inhibition at 900 µg/mL (Klebsiella pneumoniae [26]): 7.85 mm; zone of inhibition at 600 µg/mL (Klebsiella pneumoniae [27]): 3.85 mm; zone of inhibition at 900 µg/mL (Enterococcus faecalis [28]): 11.6 mm; zone of inhibition at 600 µg/mL (Enterococcus faecalis [29]): 5.85 mm; zone of inhibition at 1200 µg/mL (Exserohilum rostratum [30]): 29.8 mm; zone of inhibition at 900 µg/mL (Exserohilum rostratum [31]): 15.9 mm; zone of inhibition at 600 µg/mL (Exserohilum rostratum [32]): 8.25 mm; zone of inhibition at 300 µg/mL (Exserohilum rostratum [33]): 4.54 mm; zone of inhibition at 1200 µg/mL (Colletotrichum falcatum [34]): 32 mm; zone of inhibition at 900 µg/mL (Colletotrichum falcatum [35]): 15.8 mm; zone of inhibition at 600 µg/mL (Colletotrichum falcatum [36]): 8.32 mm
2 | COc1cccc(-c2nnc(CN3CCC(n4nc5ccccc5n4)CC3)o2)c1 | 8.45 mm | 3.35 mm | 6.26 mm | 4.36 mm | 4.56 mm | 21.3 mm | 10.1 mm | 5.86 mm | 3.35 mm | 17.2 mm | 9.86 mm | 5.01 mm | 2.52 mm | 11.3 mm | 4.47 mm | 11.2 mm | 5.56 mm | 9.56 mm | 4.25 mm | 7.56 mm | inhibition zone (IZ) (Staphylococcus aureus [16]): inactive; inhibition zone (IZ) (Staphylococcus aureus [17]): inactive; inhibition zone (IZ) (Priestia megaterium [20]): inactive; inhibition zone (IZ) (Priestia megaterium [21]): inactive; zone of inhibition at 600 µg/mL (Klebsiella aerogenes [25]): 3.65 mm; zone of inhibition at 900 µg/mL (Klebsiella pneumoniae [26]): 7.25 mm; zone of inhibition at 600 µg/mL (Klebsiella pneumoniae [27]): 3.25 mm; zone of inhibition at 900 µg/mL (Enterococcus faecalis [28]): 9.26 mm; zone of inhibition at 600 µg/mL (Enterococcus faecalis [29]): 4.25 mm; zone of inhibition at 1200 µg/mL (Exserohilum rostratum [30]): 19.2 mm; zone of inhibition at 900 µg/mL (Exserohilum rostratum [31]): 10.2 mm; zone of inhibition at 600 µg/mL (Exserohilum rostratum [32]): 5.85 mm; zone of inhibition at 300 µg/mL (Exserohilum rostratum [33]): 3.32 mm; zone of inhibition at 1200 µg/mL (Colletotrichum falcatum [34]): 25.9 mm; zone of inhibition at 900 µg/mL (Colletotrichum falcatum [35]): 13.9 mm; zone of inhibition at 600 µg/mL (Colletotrichum falcatum [36]): 7.76 mm
3 | Cc1c(Br)cccc1-c1nnc(CN2CCC(n3nc4ccccc4n3)CC2)o1 | 7.05 mm | 5.23 mm | 9.46 mm | 3.45 mm | 3.97 mm | 24.9 mm | 13.3 mm | 6.56 mm | 3.42 mm | 17.9 mm | 9.36 mm | 4.18 mm | 2.09 mm | 9.25 mm | 4.82 mm | 8.54 mm | 4.29 mm | 9.8 mm | 4.8 mm | 7.56 mm | zone of inhibition at 900 µg/mL (Staphylococcus aureus [16]): 10 mm; zone of inhibition at 600 µg/mL (Staphylococcus aureus [17]): 4.8 mm; zone of inhibition at 900 µg/mL (Priestia megaterium [20]): 10.3 mm; zone of inhibition at 600 µg/mL (Priestia megaterium [21]): 5.3 mm; zone of inhibition at 600 µg/mL (Klebsiella aerogenes [25]): 3.65 mm; zone of inhibition at 900 µg/mL (Klebsiella pneumoniae [26]): 10.2 mm; zone of inhibition at 600 µg/mL (Klebsiella pneumoniae [27]): 5.25 mm; zone of inhibition at 900 µg/mL (Enterococcus faecalis [28]): 12.1 mm; zone of inhibition at 600 µg/mL (Enterococcus faecalis [29]): 5.92 mm; zone of inhibition at 1200 µg/mL (Exserohilum rostratum [30]): 23.9 mm; zone of inhibition at 900 µg/mL (Exserohilum rostratum [31]): 11.3 mm; zone of inhibition at 600 µg/mL (Exserohilum rostratum [32]): 5.25 mm; zone of inhibition at 300 µg/mL (Exserohilum rostratum [33]): 2.98 mm; zone of inhibition at 1200 µg/mL (Colletotrichum falcatum [34]): 29.3 mm; zone of inhibition at 900 µg/mL (Colletotrichum falcatum [35]): 15.4 mm; zone of inhibition at 600 µg/mL (Colletotrichum falcatum [36]): 8.25 mm
4 | O=[N+]([O-])c1ccc(-c2nnc(CN3CCC(n4nc5ccccc5n4)CC3)o2)cc1Cl | 9.56 mm | 4.82 mm | 9.56 mm | 4.85 mm | 4.57 mm | 31.4 mm | 15.2 mm | 8.8 mm | 4.45 mm | 23.1 mm | 12.9 mm | 6.25 mm | 2.87 mm | 7.05 mm | 3.35 mm | 7.25 mm | 3.46 mm | 12 mm | 5.89 mm | 12.4 mm | zone of inhibition at 900 µg/mL (Staphylococcus aureus [16]): 10.2 mm; zone of inhibition at 600 µg/mL (Staphylococcus aureus [17]): 4.89 mm; zone of inhibition at 900 µg/mL (Priestia megaterium [20]): 12.3 mm; zone of inhibition at 600 µg/mL (Priestia megaterium [21]): 5.62 mm; zone of inhibition at 600 µg/mL (Klebsiella aerogenes [25]): 6.28 mm; zone of inhibition at 900 µg/mL (Klebsiella pneumoniae [26]): 6.25 mm; zone of inhibition at 600 µg/mL (Klebsiella pneumoniae [27]): 3.89 mm; zone of inhibition at 900 µg/mL (Enterococcus faecalis [28]): 7.25 mm; zone of inhibition at 600 µg/mL (Enterococcus faecalis [29]): 4.52 mm; zone of inhibition at 1200 µg/mL (Exserohilum rostratum [30]): 23 mm; zone of inhibition at 900 µg/mL (Exserohilum rostratum [31]): 11 mm; zone of inhibition at 600 µg/mL (Exserohilum rostratum [32]): 5.56 mm; zone of inhibition at 300 µg/mL (Exserohilum rostratum [33]): 2.95 mm; zone of inhibition at 1200 µg/mL (Colletotrichum falcatum [34]): 33.2 mm; zone of inhibition at 900 µg/mL (Colletotrichum falcatum [35]): 17.8 mm; zone of inhibition at 600 µg/mL (Colletotrichum falcatum [36]): 9.86 mm
